US5610271A, “Kappa receptor selective opioid peptides” (Torrey Pines Institute for Molecular Studies, priority 1995, dated 1997)
Square brackets hold non-standard residues; d marks the D form. Peptide text beside a SMILES is read from it. dCha = N[C@H](CC1CCCCC1)C(=O)O; dNle = CCCC[C@@H](N)C(=O)O

target: T1, κ receptor (Cavia porcellus, UniProt P41144); assay: Radioreceptor assay selective for the kappa receptor (inhibition of [3H]-U69,593 binding); set-up: species or system guinea pig
T1 construct: tissue homogenates prepared from guinea pig brains (cortex and cerebellum); tissue Harlan Bioproducts for Science (Indianapolis, Ind.); host or cells: guinea pig brain, cortex and cerebellum, crude membrane homogenate
Method: Guinea pig brains, frozen in liquid nitrogen, were obtained from Harlan Bioproducts for Science (Indianapolis, Ind.). Frozen brains were thawed, the cerebella and cortex were removed and weighed. The combined cortex and cerebella were homogenized in 40 ml Tris-HCl buffer (50 mM, pH 7.4, 4° C.) containing 100 μM phenylmethylsulfonyl fluoride (PMSF) 5 mM MgCl2 and 1 mg/ml bovine serum albumin (BSA) and centrifuged (39000×g) (Model J2-HC; Beckman Instruments, Fullerton, Calif.) for 10 min at 4° C. The pellets were resuspended in fresh Tris-HCl buffer and incubated at 37° C. for 40 min. Following incubation, the suspensions were centrifuged as above, the resulting pellets resuspended in 100 volumes of Tris buffer and the suspensions combined. Membrane suspensions were prepared and used in the same day. Protein content of the crude homogenates ranged from 0.1-0.3 mg/ml as determined using the method described by Bradford in Anal. Biochem. 72:248-254 (1976), which is incorporated herein by reference.
Binding assays were carried out in polypropylene tubes. […] Assay tubes were incubated for 2.5 hr at 25° C. The reaction was terminated by filtration through GF-B filters (Wallac, Gaithesburg, Md.). The filters were subsequently washed with 6 ml Tris-HCl buffer at 4° C. Bound radioactivity was counted on a Beta-plate Liquid Scintillation Counter (Life Technologies, Gaithersburg, Md.) and expressed in counts per minute (cpm). Standard curves were prepared using 0.05-6300 nM naloxone (Sigma, St. Louis, Mo.). Competitive inhibition assays were performed as above using serial dilutions of the peptide mixtures. IC50 values were then calculated using the software […] (ISI, San Diego, Calif.).

T1 sequence (P41144 whole entry): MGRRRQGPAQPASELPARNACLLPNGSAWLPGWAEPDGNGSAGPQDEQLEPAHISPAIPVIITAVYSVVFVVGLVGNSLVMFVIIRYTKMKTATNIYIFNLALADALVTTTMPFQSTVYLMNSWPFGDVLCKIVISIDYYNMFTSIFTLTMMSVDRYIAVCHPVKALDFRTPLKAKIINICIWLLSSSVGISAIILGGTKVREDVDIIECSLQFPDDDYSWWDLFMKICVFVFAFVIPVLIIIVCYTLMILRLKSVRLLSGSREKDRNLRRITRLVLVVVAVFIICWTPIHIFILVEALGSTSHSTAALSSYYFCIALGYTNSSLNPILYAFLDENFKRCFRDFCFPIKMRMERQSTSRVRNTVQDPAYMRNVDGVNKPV

Compound	IC50 [µM]
Ac-YRFRYRYRRR-NH2 [SEQ ID NO. 2]	0.018
Ac-YRMRYRYRRR-NH2 [SEQ ID NO. 4]	0.036
CCCC[C@@H](N)C(=O)N[C@H](Cc1ccccc1)C(=O)N[C@@H](Cc1c[nH]c2ccccc12)C(=O)N[C@H](CCCNC(=N)N)C(=O)O [SEQ ID NO. 24, (D)Nle-(D)Phe-Trp(D)Arg] (H-[dNle][dF]W[dR]-OH)	11
CCCC[C@@H](NC(=O)[C@@H](Cc1ccccc1)NC(=O)[C@H](N)Cc1ccccc1)C(=O)N[C@H](CC1CCCCC1)C(=O)O [SEQ ID NO. 13, (D)Phe-(D)Phe-(D)Nle-(D)ChAla] (H-[dF][dF][dNle][dCha]-OH)	0.003
N[C@H](Cc1ccccc1)C(=O)N[C@H](Cc1ccccc1)C(=O)N[C@@H](Cc1c[nH]c2ccccc12)C(=O)N[C@H](CC1CCCCC1)C(=O)O [SEQ ID NO. 15, (D)Phe-(D)Phe-Trp-(D)ChAla] (H-[dF][dF]W[dCha]-OH)	52.4
Ac-RRFRYRYRRR-NH2 [SEQ ID NO. 5]	0.142
CC[C@@H](C)[C@@H](NC(=O)[C@@H](Cc1ccccc1)NC(=O)[C@H](N)Cc1ccccc1)C(=O)N[C@H](CCCNC(=N)N)C(=O)O [SEQ ID NO. 16, (D)Phe-(D)Phe-(D)Ile-(D)Arg]	0.002
CCCC[C@@H](N)C(=O)N[C@H](Cc1ccccc1)C(=O)N[C@@H](C(=O)N[C@H](CCCNC(=N)N)C(=O)O)[C@H](C)CC [SEQ ID NO. 26, (D)Nle-(D)Phe-(D)Ile-(D)Arg] (H-[dNle][dF][dI][dR]-OH)	0.016
Ac-YRTRYRYRRR-NH2 [SEQ ID NO. 1]	0.01
CCCC[C@@H](N)C(=O)N[C@H](Cc1ccccc1)C(=O)N[C@@H](Cc1c[nH]c2ccccc12)C(=O)N[C@H](CC1CCCCC1)C(=O)O [SEQ ID NO. 25, (D)Nle-(D)Phe-Trp-(D)ChAla] (H-[dNle][dF]W[dCha]-OH)	42.8
Ac-RFFRYRYRRR-NH2 [SEQ ID NO. 3]	0.022
CCCC[C@@H](N)C(=O)N[C@H](Cc1ccccc1)C(=O)N[C@H](CCCC)C(=O)N[C@H](CCCNC(=N)N)C(=O)O [SEQ ID NO. 23, (D)Nle-(D)Phe-(D)Nle-(D)Arg] (H-[dNle][dF][dNle][dR]-OH)	0.01
CCCC[C@@H](N)C(=O)N[C@H](Cc1ccccc1)C(=O)N[C@@H](C(=O)N[C@H](CC1CCCCC1)C(=O)O)[C@H](C)CC [SEQ ID NO. 27, (D)Nle-(D)Phe-(D)Ile-(D)ChAla] (H-[dNle][dF][dI][dCha]-OH)	1.45
CC[C@@H](C)[C@@H](NC(=O)[C@@H](Cc1ccccc1)NC(=O)[C@H](N)Cc1ccccc1)C(=O)N[C@H](CC1CCCCC1)C(=O)O [SEQ ID NO. 17, (D)Phe-(D)Phe-(D)Ile-(D)ChAla] (H-[dF][dF][dI][dCha]-OH)	0.169
N=C(N)NCCC[C@@H](NC(=O)[C@H](Cc1c[nH]c2ccccc12)NC(=O)[C@@H](Cc1ccccc1)NC(=O)[C@H](N)Cc1ccccc1)C(=O)O [SEQ ID NO. 14, (D)Phe-(D)Phe-Trp-(D)Arg] (H-[dF][dF]W[dR]-OH)	4.95
